Source: ChEMBL document CHEMBL5696439 (Cancer Res, 2010)
Calls of active or inactive are those of the source. The rule behind the calls is not given here.

What was measured:
A549 = experiment: Antiproliferative activity against human A549 cells assessed as cell growth inhibition incubated for 24 hrs by MTS assay; format: functional, cell-based; conditions: A549, 24 h
[1] = molecular target: Protein kinase C iota type (Homo sapiens) (UniProt P41743); experiment: Inhibition of recombinant human full length His-tagged PRKCI expressed in baculovirus expression system at 2 uM using Ser/Thr 07 as substrate measured after 1 hr by Z'-LYTE assay relative to control
[2] = molecular target: MAP kinase-activated protein kinase 2 (Homo sapiens) (UniProt P49137); experiment: Inhibition of recombinant human full length His-tagged MAPKAPK2 expressed in E. coli at 2 uM using Ser/Thr 04 as substrate measured after 1 hr by Z'-LYTE assay relative to control
MG-63 = experiment: Antiproliferative activity against human MG-63 cells assessed as cell growth inhibition incubated for 24 hrs by MTS assay; format: functional, cell-based; conditions: MG-63, 24 h
[3] = molecular target: Dual specificity mitogen-activated protein kinase kinase 2 (Homo sapiens) (UniProt P36507); experiment: Inhibition of recombinant human full length His-tagged MAP2K2 expressed in baculovirus expression system at 2 uM using Ser/Thr 03 as substrate measured after 1 hr by Z'-LYTE assay relative to control
[4] = molecular target: Muscle, skeletal receptor tyrosine-protein kinase (Homo sapiens) (UniProt O15146); experiment: Inhibition of recombinant human GST-tagged MUSK (519-869 residues) expressed in insect cells at 2 uM using Tyr 04 as substrate measured after 1 hr by Z'-LYTE assay relative to control; conditions: Insect cell
[5] = molecular target: Protein kinase C theta type (Homo sapiens) (UniProt Q04759); experiment: Inhibition of recombinant human PRKCQ at 2 uM using Ser/Thr 07 as substrate measured after 1 hr by Z'-LYTE assay relative to control
[6] = molecular target: Testis-specific serine/threonine-protein kinase 1 (Homo sapiens) (UniProt Q9BXA7); experiment: Inhibition of recombinant human full length His-tagged STK22D expressed in insect cells at 2 uM using Ser/Thr 04 as substrate measured after 1 hr by Z'-LYTE assay relative to control; conditions: Insect cell
[7] = molecular target: Calcium/calmodulin-dependent protein kinase type II subunit beta (Homo sapiens) (UniProt Q13554); experiment: Inhibition of recombinant human full-length His-tagged CAMK2B expressed in insect cells at 2 uM using Ser/Thr 17 as substrate measured after 1 hr by Z'-LYTE assay relative to control; conditions: Insect cell
[8] = molecular target: Dual specificity tyrosine-phosphorylation-regulated kinase 1A (Homo sapiens) (UniProt Q13627); experiment: Inhibition of recombinant human full-length GST-tagged DYRK1A expressed in insect cells at 2 uM using Ser/Thr 18 as substrate measured after 1 hr by Z'-LYTE assay relative to control; conditions: Insect cell
LNCaP = experiment: Induction of apoptosis in human LNCaP cells assessed as increase in PARP cleavage at 0.3 to 3 micromol/L incubated for 48 hrs by Western blot analysis; format: functional, cell-based; conditions: dose 0.3-3 µmol/L
PC3MM2 = experiment: Induction of apoptosis in human PC3MM2 cells assessed as reduction in S phase at 1 micromol/L incubated for 24 hrs by FACS analysis; format: functional, cell-based; conditions: dose 1.0 µmol/L
[9] = molecular target: Tyrosine-protein kinase FRK (Homo sapiens) (UniProt P42685); experiment: Inhibition of recombinant human full-length GST-tagged FRK expressed in baculovirus expression system at 2 uM using Tyr 01 as substrate measured after 1 hr by Z'-LYTE assay relative to control
HCT-116 = experiment: Antitumor activity against human HCT-116 cells xenografted in female nude mouse model assessed as suppression in P-AKT at S473 level at 50 mg/kg, iv administered once a week and measured at least 8 hrs by immunoblot analysis; format: functional, organism-based
[10] = molecular target: Serine/threonine-protein kinase ATR (Homo sapiens, UniProt Q13535); experiment: Inhibition of ATR (unknown origin) using glutathione S-transferase-p53 as substrate by DELFIA
[11] = molecular target: Testis-specific serine/threonine-protein kinase 2 (Homo sapiens) (UniProt Q96PF2); experiment: Inhibition of recombinant human full length His-tagged STK22B expressed in insect cells at 2 uM using Ser/Thr 04 as substrate measured after 1 hr by Z'-LYTE assay relative to control; conditions: Insect cell
[12] = molecular target: Protein kinase C delta type (Homo sapiens) (UniProt Q05655); experiment: Inhibition of recombinant human full length GST-tagged PRKCD expressed in baculovirus expression system at 2 uM using Ser/Thr 07 as substrate measured after 1 hr by Z'-LYTE assay relative to control
[13] = molecular target: Calcium/calmodulin-dependent protein kinase type II subunit alpha (Homo sapiens) (UniProt Q9UQM7); experiment: Inhibition of recombinant human full-length His-tagged CAMK2A expressed in insect cells at 2 uM using Ser/Thr 04 as substrate measured after 1 hr by Z'-LYTE assay relative to control; conditions: Insect cell
[14] = system: Receptor-type tyrosine-protein kinase FLT3 (Homo sapiens), P36888 [D835Y]; experiment: Inhibition of recombinant human His-tagged FLT3 D835Y mutant (564-958 residues) expressed in insect cells at 2 uM using Tyr 02 as substrate measured after 1 hr by Z'-LYTE assay relative to control; conditions: Insect cell
[15] = molecular target: Tyrosine-protein kinase Fer (Homo sapiens) (UniProt P16591); experiment: Inhibition of recombinant human His-tagged FER (541-822 residues) expressed in baculovirus expression system at 2 uM using Tyr 05 as substrate measured after 1 hr by Z'-LYTE assay relative to control
A498 = experiment: cells; conditions: Homo sapiens, A498, 24 h
Description: Antiproliferative activity against human A498 cells assessed as cell growth inhibition incubated for 1 days by MTS assay

[16] = molecular target: Ephrin type-A receptor 8 (Homo sapiens) (UniProt P29322); experiment: Inhibition of recombinant human GST-tagged EPHA8 (565-1005 residues) expressed in insect cells at 2 uM using Tyr 02 as substrate measured after 1 hr by Z'-LYTE assay relative to control; conditions: Insect cell
[17] = molecular target: Dual specificity tyrosine-phosphorylation-regulated kinase 4 (Homo sapiens) (UniProt Q9NR20); experiment: Inhibition of recombinant human full-length GST-tagged DYRK4 expressed in insect cells at 2 uM using Ser/Thr 09 as substrate measured after 1 hr by Z'-LYTE assay relative to control; conditions: Insect cell
[18] = molecular target: RAC-gamma serine/threonine-protein kinase (Homo sapiens) (UniProt Q9Y243); experiment: Inhibition of recombinant human full-length His-tagged AKT3 expressed in insect cells at 2 uM using Ser/Thr 06 as substrate measured after 1 hr by Z'-LYTE assay relative to control; conditions: Insect cell
MDA-MB-361 = experiment: Antitumor activity against human MDA-MB-361 cells xenografted in female nude mouse model assessed as induction in PARP cleavage at 50 mg/kg, po qd administered as 5 days on/2 days off regimen for 4 cycles by immunoblot analysis; format: functional, organism-based; conditions: time 28.0 day
[19] = system: RAF proto-oncogene serine/threonine-protein kinase (Homo sapiens), P04049 [Y340D,Y341D]; experiment: Inhibition of recombinant human GST-tagged RAF1 Y340D/Y341D double mutant (306-648 residues) expressed in insect cells at 2 uM using Ser/Thr 03 as substrate measured after 1 hr by Z'-LYTE assay relative to control; conditions: Insect cell
Sequence of RAF proto-oncogene serine/threonine-protein kinase (Homo sapiens), P04049 [Y340D,Y341D] (P04049 whole entry Y340D/Y341D, the tested form may be a part): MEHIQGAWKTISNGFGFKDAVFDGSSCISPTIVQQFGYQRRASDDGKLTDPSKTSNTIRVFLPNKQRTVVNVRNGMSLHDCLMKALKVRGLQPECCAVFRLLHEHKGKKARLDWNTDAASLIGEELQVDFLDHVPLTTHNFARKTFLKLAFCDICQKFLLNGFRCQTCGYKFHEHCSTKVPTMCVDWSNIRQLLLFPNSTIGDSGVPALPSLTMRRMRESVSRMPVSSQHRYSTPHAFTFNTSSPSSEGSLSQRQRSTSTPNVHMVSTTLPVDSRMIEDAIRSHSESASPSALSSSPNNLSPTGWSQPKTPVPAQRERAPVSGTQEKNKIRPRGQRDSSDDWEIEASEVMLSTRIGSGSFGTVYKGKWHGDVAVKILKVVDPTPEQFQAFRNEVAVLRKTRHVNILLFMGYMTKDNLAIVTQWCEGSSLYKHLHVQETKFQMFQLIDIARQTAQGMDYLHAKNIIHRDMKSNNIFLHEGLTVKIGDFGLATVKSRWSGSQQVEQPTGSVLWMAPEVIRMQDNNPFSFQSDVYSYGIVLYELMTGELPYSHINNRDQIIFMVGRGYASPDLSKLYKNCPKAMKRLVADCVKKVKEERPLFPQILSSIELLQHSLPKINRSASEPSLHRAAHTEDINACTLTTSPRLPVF

Sequence of Protein kinase C delta type (Homo sapiens) (Q05655 whole entry, looked up): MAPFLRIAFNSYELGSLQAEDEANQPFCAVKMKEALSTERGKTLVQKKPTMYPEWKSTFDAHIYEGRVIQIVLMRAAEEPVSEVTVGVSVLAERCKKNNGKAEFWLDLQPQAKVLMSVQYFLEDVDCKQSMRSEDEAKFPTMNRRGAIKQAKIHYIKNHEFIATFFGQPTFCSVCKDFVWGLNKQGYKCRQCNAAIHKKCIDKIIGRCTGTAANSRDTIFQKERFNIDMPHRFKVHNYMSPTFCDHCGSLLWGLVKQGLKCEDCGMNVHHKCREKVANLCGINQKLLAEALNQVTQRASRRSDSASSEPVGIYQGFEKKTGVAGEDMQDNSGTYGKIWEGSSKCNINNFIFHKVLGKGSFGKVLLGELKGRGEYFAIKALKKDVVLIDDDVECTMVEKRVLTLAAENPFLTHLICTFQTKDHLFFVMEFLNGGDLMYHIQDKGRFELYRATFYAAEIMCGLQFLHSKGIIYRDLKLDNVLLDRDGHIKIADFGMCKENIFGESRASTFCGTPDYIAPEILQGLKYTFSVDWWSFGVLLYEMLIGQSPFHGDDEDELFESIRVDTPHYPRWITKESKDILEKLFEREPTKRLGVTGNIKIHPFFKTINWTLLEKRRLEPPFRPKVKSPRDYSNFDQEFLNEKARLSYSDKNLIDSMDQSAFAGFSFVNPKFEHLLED
Sequence of Dual specificity tyrosine-phosphorylation-regulated kinase 4 (Homo sapiens) (Q9NR20 whole entry): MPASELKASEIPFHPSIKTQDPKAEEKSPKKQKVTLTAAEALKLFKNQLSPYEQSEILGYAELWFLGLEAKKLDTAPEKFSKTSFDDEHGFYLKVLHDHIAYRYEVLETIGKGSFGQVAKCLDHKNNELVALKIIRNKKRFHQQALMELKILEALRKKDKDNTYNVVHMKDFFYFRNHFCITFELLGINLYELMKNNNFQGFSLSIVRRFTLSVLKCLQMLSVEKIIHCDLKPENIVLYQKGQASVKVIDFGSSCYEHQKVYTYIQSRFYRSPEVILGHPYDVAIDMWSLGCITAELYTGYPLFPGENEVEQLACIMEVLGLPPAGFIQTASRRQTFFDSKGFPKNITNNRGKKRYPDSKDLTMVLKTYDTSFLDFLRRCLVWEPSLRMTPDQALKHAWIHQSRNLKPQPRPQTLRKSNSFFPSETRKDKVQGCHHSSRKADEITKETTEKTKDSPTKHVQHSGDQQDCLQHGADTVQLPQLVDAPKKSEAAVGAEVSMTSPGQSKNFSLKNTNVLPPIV
Sequence of Dual specificity mitogen-activated protein kinase kinase 2 (Homo sapiens) (P36507 whole entry, the tested form may be a part): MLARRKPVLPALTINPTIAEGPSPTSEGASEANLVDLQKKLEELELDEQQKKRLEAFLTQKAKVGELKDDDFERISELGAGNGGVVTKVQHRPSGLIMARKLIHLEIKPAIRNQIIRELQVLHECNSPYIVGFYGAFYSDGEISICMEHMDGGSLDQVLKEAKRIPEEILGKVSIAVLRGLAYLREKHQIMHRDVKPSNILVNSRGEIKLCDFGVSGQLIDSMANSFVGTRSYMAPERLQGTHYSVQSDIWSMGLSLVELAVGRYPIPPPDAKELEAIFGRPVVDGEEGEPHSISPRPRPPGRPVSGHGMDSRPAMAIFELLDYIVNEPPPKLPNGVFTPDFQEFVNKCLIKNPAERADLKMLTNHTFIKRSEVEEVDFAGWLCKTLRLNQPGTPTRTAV
Sequence of RAC-gamma serine/threonine-protein kinase (Homo sapiens) (Q9Y243 whole entry): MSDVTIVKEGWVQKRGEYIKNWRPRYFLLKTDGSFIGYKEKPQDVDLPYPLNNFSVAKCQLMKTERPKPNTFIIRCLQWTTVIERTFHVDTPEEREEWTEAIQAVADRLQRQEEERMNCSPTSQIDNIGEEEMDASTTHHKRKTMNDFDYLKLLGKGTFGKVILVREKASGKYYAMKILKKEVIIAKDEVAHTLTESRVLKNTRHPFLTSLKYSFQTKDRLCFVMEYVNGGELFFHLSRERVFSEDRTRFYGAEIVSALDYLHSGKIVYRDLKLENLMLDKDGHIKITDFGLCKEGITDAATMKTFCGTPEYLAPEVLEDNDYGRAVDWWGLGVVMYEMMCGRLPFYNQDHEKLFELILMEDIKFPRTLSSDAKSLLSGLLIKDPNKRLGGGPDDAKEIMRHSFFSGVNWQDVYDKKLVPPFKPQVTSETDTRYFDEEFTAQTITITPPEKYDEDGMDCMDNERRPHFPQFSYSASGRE
Sequence of Ephrin type-A receptor 8 (Homo sapiens) (P29322 whole entry, the tested form may be a part): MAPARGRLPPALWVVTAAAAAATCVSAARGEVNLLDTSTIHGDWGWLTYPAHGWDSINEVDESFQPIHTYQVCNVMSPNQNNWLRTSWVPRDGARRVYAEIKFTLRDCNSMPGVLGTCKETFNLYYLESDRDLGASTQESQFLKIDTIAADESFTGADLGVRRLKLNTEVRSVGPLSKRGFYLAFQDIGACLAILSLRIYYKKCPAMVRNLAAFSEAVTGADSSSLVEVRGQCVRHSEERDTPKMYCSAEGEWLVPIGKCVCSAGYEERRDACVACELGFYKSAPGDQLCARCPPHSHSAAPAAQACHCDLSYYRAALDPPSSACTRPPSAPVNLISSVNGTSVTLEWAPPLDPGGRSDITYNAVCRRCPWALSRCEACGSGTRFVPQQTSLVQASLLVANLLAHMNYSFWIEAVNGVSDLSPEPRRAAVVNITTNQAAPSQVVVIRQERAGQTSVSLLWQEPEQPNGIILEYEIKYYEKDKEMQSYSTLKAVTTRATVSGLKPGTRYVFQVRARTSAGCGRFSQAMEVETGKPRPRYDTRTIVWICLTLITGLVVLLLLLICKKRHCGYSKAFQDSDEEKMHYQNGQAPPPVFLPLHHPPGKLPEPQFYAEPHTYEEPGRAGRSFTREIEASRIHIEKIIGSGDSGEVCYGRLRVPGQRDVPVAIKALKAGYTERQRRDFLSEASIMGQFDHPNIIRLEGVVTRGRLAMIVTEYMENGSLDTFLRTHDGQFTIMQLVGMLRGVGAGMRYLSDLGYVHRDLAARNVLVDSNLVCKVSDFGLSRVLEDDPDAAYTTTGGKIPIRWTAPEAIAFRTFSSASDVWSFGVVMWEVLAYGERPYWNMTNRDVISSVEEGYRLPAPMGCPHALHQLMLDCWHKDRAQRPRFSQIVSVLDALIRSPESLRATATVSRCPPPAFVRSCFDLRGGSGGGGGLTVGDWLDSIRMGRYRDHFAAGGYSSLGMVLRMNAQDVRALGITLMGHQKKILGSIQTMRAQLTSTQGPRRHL
Sequence of Protein kinase C theta type (Homo sapiens) (Q04759 whole entry, looked up): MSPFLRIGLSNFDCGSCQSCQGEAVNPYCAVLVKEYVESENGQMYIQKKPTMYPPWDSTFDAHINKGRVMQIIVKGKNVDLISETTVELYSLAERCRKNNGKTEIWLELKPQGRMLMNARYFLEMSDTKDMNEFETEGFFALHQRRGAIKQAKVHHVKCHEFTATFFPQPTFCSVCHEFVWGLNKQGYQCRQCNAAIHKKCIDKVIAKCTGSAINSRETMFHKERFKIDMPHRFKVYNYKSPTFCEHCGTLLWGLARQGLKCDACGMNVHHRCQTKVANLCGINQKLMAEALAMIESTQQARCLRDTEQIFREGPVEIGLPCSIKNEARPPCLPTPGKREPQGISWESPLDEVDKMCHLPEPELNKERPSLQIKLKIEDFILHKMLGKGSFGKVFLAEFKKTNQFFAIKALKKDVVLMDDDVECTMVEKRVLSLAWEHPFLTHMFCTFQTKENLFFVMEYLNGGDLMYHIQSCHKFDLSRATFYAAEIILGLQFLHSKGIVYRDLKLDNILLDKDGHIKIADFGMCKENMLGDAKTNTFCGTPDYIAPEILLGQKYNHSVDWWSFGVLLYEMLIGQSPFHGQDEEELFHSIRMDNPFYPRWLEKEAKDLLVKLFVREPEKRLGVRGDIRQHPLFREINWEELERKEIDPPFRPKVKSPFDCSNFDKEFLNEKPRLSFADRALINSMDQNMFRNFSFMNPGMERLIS
Sequence of Protein kinase C iota type (Homo sapiens) (P41743 whole entry): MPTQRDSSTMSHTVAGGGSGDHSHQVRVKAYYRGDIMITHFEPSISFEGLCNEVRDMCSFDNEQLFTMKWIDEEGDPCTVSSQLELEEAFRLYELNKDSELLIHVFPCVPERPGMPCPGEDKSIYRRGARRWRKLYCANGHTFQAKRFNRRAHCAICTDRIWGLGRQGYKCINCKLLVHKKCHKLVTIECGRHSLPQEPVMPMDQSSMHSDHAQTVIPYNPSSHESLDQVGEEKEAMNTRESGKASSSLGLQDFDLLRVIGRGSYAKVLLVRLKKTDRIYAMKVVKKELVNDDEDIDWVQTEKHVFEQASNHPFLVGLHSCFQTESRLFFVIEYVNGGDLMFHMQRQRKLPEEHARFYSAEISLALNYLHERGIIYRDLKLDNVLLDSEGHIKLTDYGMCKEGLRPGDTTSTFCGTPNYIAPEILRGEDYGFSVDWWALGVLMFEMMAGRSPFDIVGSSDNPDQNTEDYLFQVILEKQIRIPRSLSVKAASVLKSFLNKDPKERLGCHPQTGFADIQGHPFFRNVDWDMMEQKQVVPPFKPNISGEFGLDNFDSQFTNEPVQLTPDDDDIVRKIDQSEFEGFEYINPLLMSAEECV

CNC(=O)Nc1ccc(-c2nc(N3CC4CCC(C3)O4)c3cnn(C4CCC5(CC4)OCCO5)c3n2)cc1
IC50 (A549): 102 nM
inhibition [1]: 6%
inhibition [2]: 4%
IC50 (MG-63): 25 nM
inhibition [3]: 2%
inhibition [4]: 15%
inhibition [5]: 5%
inhibition [6]: 3%
inhibition [7]: 8%
inhibition [8]: 2%
Activity (LNCaP): Active
Activity (PC3MM2): Active
inhibition [9]: 3%
Activity (HCT-116): Active
IC50 [10]: > 10000 nM
inhibition [11]: 2%
inhibition [12]: 16%
inhibition [13]: 0%
inhibition [14]: 7%
inhibition [15]: 5%
IC50 (A498): > 20000 nM
inhibition [16]: 24%
inhibition [17]: 4%
inhibition [18]: 2%
Activity (MDA-MB-361): Active
inhibition [19]: 12%
